How the values were obtained:
[1] = tested on: LH; assay: Blood level of LH after time-released leuprolide acetate device; type: in vivo, human
Protocol: (§1) For example, a 30 mg time-released dose of leuprolide acetate can be administered to an adult subject. The leuprolide acetate active agent is provided in a biodegradable polymer system to supply a polymeric device for controlled release of the active agent. […] The leuprolide acetate active agent is incorporated within the polymer system such that the polymer system provides for controlled release of the agent from the device. When the device is administered to the subject, for example, when it is implanted, the device releases the active agent in a controlled fashion without a lag period, or with a minimal lag period. In this manner, the leuprolide can be gradually released over a period of several months. After a period of two weeks, the subject's blood level of LH may be undetectable and the subject's blood level of FSH may be approximately 5 mIU/mL.
(§2) In another example, a dose of 1.88 mg time-released dose of leuprolide acetate can be administered to a subject. The leuprolide acetate active agent is provided in a biodegradable polymer system to supply a polymeric device for controlled release of the active agent. […] The leuprolide acetate active agent is incorporated within the polymer system such that the polymer system provides for controlled release of the agent from the device. […]

[2] = tested on: FSH; assay: Blood level of FSH after time-released leuprolide acetate device; type: in vivo, human
Protocol: as §1, §2

[3] = 1.88 mg time-released dose in polymeric device, released over approximately one month
[4] = 30 mg time-released dose in polymeric device, adult subject, after two weeks

CCNC(=O)[C@@H]1CCCN1C(=O)[C@H](CCCNC(=N)N)NC(=O)[C@H](CC(C)C)NC(=O)[C@@H](CC(C)C)NC(=O)[C@H](Cc1ccc(O)cc1)NC(=O)[C@H](CO)NC(=O)[C@H](Cc1c[nH]c2ccccc12)NC(=O)[C@H](Cc1c[nH]cn1)NC(=O)[C@@H]1CCC(=O)N1 [leuprolide acetate]
LH blood levels [1, 3]: undetectable levels | blood level of LH [1, 4]: undetectable | FSH blood levels [2, 3]: undetectable levels | blood level of FSH [2, 4]: approximately 5 mIU/mL

Source: patent publication US8647657B2, “Polymeric devices for controlled release of active agents” (Durect Corporation, priority 2003, dated 2014)
